Here are results for 12 compounds from ChEMBL document CHEMBL6087446, “Hypoxia Activated Nitric Oxide Donor Compounds for the Prevention and Treatment of Myocardial Hypoxia-Induced Injury” (J Med Chem, 2025).

The source made the active and inactive calls. The rule behind the calls is not given here. Bounds are passed on as bounds.

The test system of series [1] is H9c2. In words: Induction of NO release in rat H9c2 cells under hypoxia condition at 10 uM by Griess reagent assay relative to control. Type of series: functional. In general terms: Nitrite, measured by Griess reagent, commonly stands in for NO production.
Series [2] in a line: Induction of NO release in rat H9c2 cells at 10 uM by Griess reagent assay relative to control. The series is classed as functional.
The subject of series [3] is Mus musculus. The series is described as follows: Prevention of myocardial hypoxia injury in isoproterenol-induced male C57 mouse myocardial injury model assessed as pathological myocardial change by measuring myocardial cell damage at 5 mg/kg, IG once daily for 3 consecutive days by hematoxylin and eosin staining based analysis. The note with it: time 3.0 day. The series is classed as functional, organism-based.

The test system of series [4] is Mus musculus. In words: Prevention of myocardial hypoxia injury in isoproterenol-induced male C57 mouse myocardial injury model assessed as pathological myocardial change by cell damage at 5 mg/kg, ip once daily for 3 consecutive days by hematoxylin and eosin staining based analysis. Type of series: functional, organism-based. Conditions: time 3.0 day.
Series [5] relates to Mus musculus. In words: Prevention of myocardial hypoxia injury in isoproterenol-induced male C57 mouse myocardial injury model assessed as decrease in mTORC1 expression at 5 mg/kg, IG once daily for 3 consecutive days by immunohistochemistry. Type of series: functional, organism-based. The note with it: time 3.0 day.
The test system of series [6] is H9c2. In words: Prevention of hypoxia-induced decrease in ATP level in rat H9c2 cells at 10 uM […] (Rvb =- 19.6 nmol/mg). The note with it: h9c2, 10 µM. The series is classed as ADME, cell-based. Background: Tetrazolium dyes change colour on reduction, which living cells bring about.
The test system of series [7] is H9c2. In words: Prevention of hypoxia-induced apoptosis in rat H9c2 cells assessed as decrease in early apoptosis by measuring reduced green fluorescence at 10 uM incubated for 4 hrs by confocal microscopy with Annexin V-FITC and propidium iodide (PI) double staining analysis. The series is classed as functional, cell-based.
Series [8] has as its system Mus musculus. In words: Prevention of myocardial hypoxia injury in isoproterenol-induced male C57 mouse myocardial injury model assessed as decrease in ACE expression at 5 mg/kg, IG once daily for 3 consecutive days by immunohistochemistry. The series is classed as functional, organism-based. Conditions: time 3.0 day.
Series [9] has as its system H9c2. The series is described as follows: Prevention of hypoxia-induced apoptosis in rat H9c2 cells assessed as decrease in late apoptosis and necrosis by measuring reduced red fluorescence at 10 uM incubated for 4 hrs by confocal microscopy with Annexin V-FITC and propidium iodide (PI) double staining analysis. The series is classed as functional, cell-based.
Series [10] in a line: Toxicity in male C57 mouse assessed as adverse effect at 405 mg/kg, ip measured up to 14 days observation period. The note with it: in vivo, 336 h, time < 14 day. Type of series: organism-based.
Series [11] deals with Mus musculus. The series is described as follows: Prevention of myocardial hypoxia injury in isoproterenol-induced male C57 mouse myocardial injury model assessed as prevention of lamellar collagen fiber deposition at 5 mg/kg, IG once daily for 3 consecutive days by Masson staining based analysis. The series is classed as functional, organism-based. The note with it: time 3.0 day.

Series [12] relates to Mus musculus. In words: Prevention of myocardial hypoxia injury in isoproterenol-induced male C57 mouse myocardial injury model assessed as prevention of bundle collagen fiber deposition at 5 mg/kg, IG once daily for 3 consecutive days by Masson staining based analysis. Type of series: functional, organism-based. The note with it: time 3.0 day.
The subject of series [13] is H9c2. The series is described as follows: Prevention of hypoxia-induced decrease cell viability of rat H9c2 cells at 10 uM by CCK8 assay. The series is classed as functional, cell-based.
Series [14] relates to Mus musculus. In words: Prevention of myocardial hypoxia injury in isoproterenol-induced male C57 mouse myocardial injury model assessed as heart weight ratio at 5 mg/kg, ip once daily for 3 consecutive days (reference value: 0.60%). Conditions: time 3 day. Type of series: functional.
Series [15] deals with Mus musculus. In words: Prevention of myocardial hypoxia injury in isoproterenol-induced male C57 mouse myocardial injury model assessed as prevention of lamellar collagen fiber deposition at 5 mg/kg, ip once daily for 3 consecutive days by Masson staining based analysis. The note with it: time 3.0 day. The series is classed as functional, organism-based.
The test system of series [16] is Mus musculus. The series is described as follows: Prevention of myocardial hypoxia injury in isoproterenol-induced male C57 mouse myocardial injury model assessed as decrease in heart weight ratio at 5 mg/kg, ip once daily for 3 consecutive days (reference value: 0.68%). The series is classed as functional. Also on record: scale not given: the % may be the effect or the level left. Conditions: time 3 day.

For series [17], the system named is H9c2. The series is described as follows: Induction of NO release in rat H9c2 cells under hypoxia condition at 10 uM measured for first 30 mins by Griess reagent assay relative to control. Type of series: functional. Conditions: 0.5 h.
For series [18], the system named is Mus musculus. The series is described as follows: Prevention of myocardial hypoxia injury in isoproterenol-induced male C57 mouse myocardial injury model assessed as decrease in myocardial size at 5 mg/kg, ip once daily for 3 consecutive days (reference value: 6.47 mm). Type of series: functional. Conditions: time 3 day.

On to `CN(N=O)c1ccc(OCc2ccccc2[N+](=O)[O-])cc1`, for which the outcome in [1] was Active. The same compound showed an Activity in series [2] of less than 5%.
On the same counts, the results for `CN(N=O)c1ccc(OCc2ccc([N+](=O)[O-])cc2Cl)cc1` are “Active” and less than 5%.
For the compound `CN(N=O)c1ccc(OCc2cc(Cl)ccc2[N+](=O)[O-])cc1`, in series [2], the Activity is on record as less than 5%.
Consider `CN(N=O)c1ccc(OCc2ccc([N+](=O)[O-])cc2)cc1`, for which the outcome in [1] was Active. The Activity in [2] was less than 5%.
As to `Cc1cc([N+](=O)[O-])ccc1COc1ccc(N(C)N=O)cc1`, the outcome in series [1] was Active. The Activity in series [2] is given as less than 5%.
`Cc1ccc(COc2ccc(N(C)N=O)cc2)c([N+](=O)[O-])c1` gave an Activity in series [2] of less than 5%.
The same measure, in the same setting: next, `Cc1cc(COc2ccc(N(C)N=O)cc2)ccc1[N+](=O)[O-]`: less than 5%; `CN(N=O)c1ccc(OCc2ccc(Br)cc2[N+](=O)[O-])cc1`: less than 5%.
In the case of `CN(N=O)c1ccc(OCc2c(Cl)cccc2[N+](=O)[O-])cc1`, the outcome in [1] was Active. The compound also came in with an Activity in series [2] of less than 5%.
`O=[N+]([O-])O[C@@H]1CO[C@H]2[C@@H]1OC[C@@H]2O` [ISOSORBIDE MONONITRATE]: the outcome in series [3], in series [4] and in series [15] was inactive. Further, the outcome in series [5], in series [7] and in [8] was Active. In addition, the Activity in series [6] is on record as 25.3 nmol/mg; in series [9], “Active; Reduced Red Fluorescence To Certain Extents”; in series [10] it was “Toxic”; in series [11] it was “Active; N6 More Efficacious Than Ismn”; in [12], “Active; N6 More Efficacious Than Ismn”; in [13] it was “Active; Partially Restores Cell Viability”. Further, the Activity in series [14] is on record as 0.55%; in series [16], 0.61%; in series [17], approximately 30%; in series [18], 3.93 mm.
`CN(N=O)c1ccc(OCc2ccc(Cl)cc2[N+](=O)[O-])cc1` gave an Activity in series [2] of less than 5%.
On the same count and under the same terms, the same measure for `Cc1ccc([N+](=O)[O-])c(COc2ccc(N(C)N=O)cc2)c1`: less than 5%.
